Results published in patent publication US11523612B2, “Pesticidal composition comprising oxime carbamate and use thereof” (priority 2017, dated 2022).

Assays:
[1] = Solubility Test 1: oxamyl dissolved in solvent systems, crystallization or precipitation observed; assay type: physicochemical
[2] = as above; assay type: physicochemical; remark: listed apart in the source
Method: Samples of each solution were kept at −6° C. and −18° C. for 7 days, after which the degree of crystallization or precipitation of oxamyl was observed.

[3] = 40 g oxamyl in Methanol:Water 80:20 g
[4] = 40 g oxamyl in Methanol:Water:Propylene Carbonate 30:20:50 g
[5] = 40 g oxamyl in Methanol:Water:Propylene Carbonate 75:20:5 g
[6] = 40 g oxamyl in Methanol:Water 50:50 g
[7] = 40 g oxamyl in Methanol:Water:Propylene Carbonate 40:30:30 g
[8] = 40 g oxamyl in Methanol:Water:Propylene Carbonate 40:40:20 g
[9] = 40 g oxamyl in Methanol:Water:Propylene Carbonate 50:40:10 g
[10] = 40 g oxamyl in Methanol:Water:Propylene Carbonate 60:20:20 g

CNC(=O)O/N=C(\SC)C(=O)N(C)C [Oxamyl, methyl 2-(dimethylamino)-N-[[(methylamino)carbonyl]oxy]-2-oxoethanimidothioate]
Observations at room temperature [1, 3]: Clear solution
Observations at room temperature [1, 4]: Clear solution
Observations at room temperature [1, 5]: Clear solution
Observations after 7 days at −6° C. [2, 6]: Mild precipitation
Observations after 7 days at −18° C. [2, 6]: Significant precipitation
Observations at room temperature [2, 6]: Clear solution
Observations after 7 days at −6° C. [2, 3]: Clear solution
Observations after 7 days at −18° C. [2, 3]: Significant precipitation
Observations after 7 days at −6° C. [2, 4]: Clear solution
Observations after 7 days at −18° C. [2, 4]: Clear solution
Observations after 7 days at −6° C. [2, 7]: Clear solution
Observations after 7 days at −18° C. [2, 7]: Clear solution
Observations at room temperature [2, 7]: Clear solution
Observations after 7 days at −6° C. [2, 8]: Clear solution
Observations after 7 days at −18° C. [2, 8]: Clear solution
Observations at room temperature [2, 8]: Clear solution
Observations after 7 days at −6° C. [2, 9]: Clear solution
Observations after 7 days at −18° C. [2, 9]: Clear solution
Observations at room temperature [2, 9]: Clear solution
Observations after 7 days at −6° C. [2, 10]: Clear solution
Observations after 7 days at −18° C. [2, 10]: Clear solution
Observations at room temperature [2, 10]: Clear solution
Observations after 7 days at −6° C. [2, 5]: Clear solution
Observations after 7 days at −18° C. [2, 5]: Clear solution
solubility for oxamyl ([2]; solvent system comprising methanol, water and propylene carbonate, temperatures down to −18° C.): significantly higher solubility
